Values quoted from earlier work as cited in article PMC2615486 (Chemistry & biology, 2008).

Legend:
avidin = conditions: ref Green, N.M. 1970
[1] = ref Hyre, D.E., Le Trong, I., et al. 2006

Molecule	dissociation constant for avidin, weaker than that of biotin (avidin)	association rate for biotin [1]
C[C@@H]1NC(=O)N[C@@H]1CCCCCC(=O)O [desthiobiotin]	10^2–10^4 fold	–
streptavidin: wild-type streptavidin as described in the literature	–	~ 1 × 10^8 M^−1s^−1
